Values quoted from earlier work in patent publication US6809181B2, “Human beta-defensin-3 (HBD-3), a highly cationic beta-defensin antimicrobial peptide” (University of Iowa Research Foundation, priority 2000, dated 2004).
Converted amounts (≈) assume the structure as drawn. Where two headings read alike, the source gives them in different places.

Legend:
[1] = system: Branhamella (Moraxella) catarrhalis (non β-lactamase producer); details: cited from earlier work
[2] = system: Campylobacter jejuni; details: cited from earlier work; for MIC50 / MIC90: unit assumed
[3] = system: Campylobacter pylori; details: n=56, r43, cited from earlier work
[4] = system: Corynebacterium JK; details: n=19; r46; unit assumed; cited from earlier work
[5] = system: Haemophilus ducreyi; details: n=122; r53; unit assumed; cited from earlier work
[6] = system: Haemophilus influenzae (penicillin resistant); details: n=20, r66, cited from earlier work
[7] = system: Listeria monocytogenes; details: cited from earlier work; for MIC50 / MIC90: unit assumed
[8] = system: Mycoplasma pneumoniae; details: cited from earlier work
[9] = system: Neisseria gonorrhoeae (non β-lactamase producer); details: cited from earlier work
[10] = system: Nocardia asteroides; details: n=78, r91, cited from earlier work
[11] = system: Staphylococcus aureus (methicillin susceptible); details: unit assumed, cited from earlier work
[12] = system: Staphylococcus haemolyticus; details: n=20; r121; unit assumed; cited from earlier work
[13] = system: Streptococcus pneumoniae; details: cited from earlier work; for MIC90: unit assumed
[14] = system: Ureaplasma urealyticum; details: unit assumed, cited from earlier work

In the case of `CC[C@H]1OC(=O)[C@H](C)[C@@H](O[C@H]2C[C@@](C)(OC)[C@@H](O)[C@H](C)O2)[C@H](C)[C@@H](O[C@@H]2O[C@H](C)C[C@H](N(C)C)[C@H]2O)[C@](C)(O)C[C@@H](C)C(=O)[C@H](C)[C@@H](O)[C@]1(C)O` [ERYTHROMYCIN, erythromycin], the Range ([1]; n=14, r23) is listed as 0.06-1, the Range ([1]; n=16, r26) is listed as 0.015-1 and the Range ([1]; n=40, r17) is listed as 0.06-0.5. The MIC50 ([2]; n=16, r42) was 0.25 µg/mL (≈ 0.341 µM), the MIC90 ([2]; n=16, r42) was 2 µg/mL (≈ 2.73 µM) and the Range ([2]; n=25, r41) was 0.5-8. For the same compound, the MIC50 ([2]; n=25, r41) was 1 µg/mL (≈ 1.36 µM), the MIC90 ([2]; n=25, r41) was 4 µg/mL (≈ 5.45 µM) and the Range [3] was 0.25-16. The MIC50 ([3]; unit assumed) was 0.5 µg/mL (≈ 0.681 µM), the MIC90 ([3]; unit assumed) was 1 µg/mL (≈ 1.36 µM) and the MIC50 [4] was 2 µg/mL (≈ 2.73 µM). For the same compound, the MIC50 [5] was 0.004 µg/mL (≈ 0.00545 µM), the MIC90 [5] was 0.06 µg/mL (≈ 0.0818 µM) and the Range [6] was 8-16. The MIC50 ([6]; unit assumed) was 8 µg/mL (≈ 10.9 µM), the MIC90 ([6]; unit assumed) was 16 µg/mL (≈ 21.8 µM) and the Range ([7]; n=13, r74) was 0.5-1. For the same compound, the MIC50 ([7]; n=13, r74) was 0.5 µg/mL (≈ 0.681 µM), the MIC90 ([7]; n=13, r74) was 0.5 µg/mL (≈ 0.681 µM) and the MIC50 ([7]; n=16, r75) was 0.25 µg/mL (≈ 0.341 µM). The MIC90 ([7]; n=16, r75) was 1 µg/mL (≈ 1.36 µM), the Range ([7]; n=65, r76) was 0.06-32 and the MIC90 ([7]; n=65, r76) was 32 µg/mL (≈ 43.6 µM). The Range ([8]; n=10, r79) was 0.06-8, the MIC90 ([8]; n=10, r79, unit assumed) was 0.06 µg/mL (≈ 0.0818 µM) and the Range ([8]; n=14, r80) was 0.004-0.03. For the same compound, the MIC50 ([8]; n=14, r80, unit assumed) was 0.004 µg/mL (≈ 0.00545 µM), the MIC90 ([8]; n=14, r80, unit assumed) was 0.004 µg/mL (≈ 0.00545 µM) and the Range ([9]; n=73, r82) was 0.015-4. For the same compound, the Range ([9]; n=78, r84) was 0.03-2, the Range [10] was 0.25-8 and the MIC50 ([10]; unit assumed) was 8 µg/mL (≈ 10.9 µM). For the same compound, the MIC90 ([10]; unit assumed) was 8 µg/mL (≈ 10.9 µM), the MIC50 ([11]; n=20, r104) was 0.5 µg/mL (≈ 0.681 µM) and the MIC90 ([11]; n=20, r104) was 0.5 µg/mL (≈ 0.681 µM). For the same compound, the MIC50 ([11]; n=28, r100) was 0.25 µg/mL (≈ 0.341 µM), the MIC90 ([11]; n=28, r100) was 0.5 µg/mL (≈ 0.681 µM) and the MIC50 ([11]; n=97, r102) was 0.25 µg/mL (≈ 0.341 µM). The MIC50 [12] was 64 µg/mL (≈ 87.2 µM), the Range ([13]; n=26, r129) was 0.015-0.25 and the MIC90 ([13]; n=26, r129) was 0.06 µg/mL (≈ 0.0818 µM). The Range ([13]; n=50, r127) was 0.015-0.06, the MIC90 ([13]; n=50, r127) was 0.03 µg/mL (≈ 0.0409 µM) and the MIC90 ([13]; n=50, r130) was 0.06 µg/mL (≈ 0.0818 µM). The Range ([13]; n=58, r125) was 0.03-0.25, the MIC50 ([14]; n=19, r138) was 16 µg/mL (≈ 21.8 µM) and the MIC90 ([14]; n=19, r138) was 32 µg/mL (≈ 43.6 µM). The MIC50 ([14]; n=28, r137) was 2 µg/mL (≈ 2.73 µM).
